Reference: ChEMBL document CHEMBL4715881, “ATB-targeted delivery of triptolide prodrugs for safer and more effective pancreatic cancer therapy” (Bioorg Med Chem Lett, 2021)
Calls of active or inactive are those of the source. No cut-off for these calls is given here.

Columns and labels:
[1] = test system: MIA PaCa-2; assay: Cytotoxicity against human MIA PaCa-2 cells assessed as reduction in cell viability pretreated with glycine for 30 mins by MTT assay; assay type: functional, cell-based
[2] = test system: ASPC1; assay: Cytotoxicity against human ASPC1 cells assessed as reduction in cell viability pretreated with glycine for 30 mins by MTT assay; assay type: functional, cell-based
[3] = test system: MIA PaCa-2; assay: Cytotoxicity against human MIA PaCa-2 cells assessed as reduction in cell viability by MTT assay; assay type: functional, cell-based
[4] = test system: ASPC1; assay: Cytotoxicity against human ASPC1 cells assessed as reduction in cell viability by MTT assay; assay type: functional, cell-based
[5] = Cytotoxicity against human HPDE cells assessed as reduction in cell viability by MTT assay; assay type: cell-based
[6] = Drug uptake in human MIA PaCa-2 cells in presence of glutamate; assay type: ADME, cell-based
[7] = Drug uptake in human ASPC1 cells in presence of glutamate; assay type: ADME, cell-based
[8] = Drug uptake in human ASPC1 cells in presence of lysine; assay type: ADME, cell-based
[9] = Drug uptake in human MIA PaCa-2 cells in presence of lysine; assay type: ADME, cell-based
[10] = Drug uptake in human MIA PaCa-2 cells in presence of glycine; assay type: ADME, cell-based
[11] = Drug uptake in human ASPC1 cells in presence of glycine; assay type: ADME, cell-based
[12] = Drug uptake in human MIA PaCa-2 cells in presence of alpha-Methyl-D,L-tryptophan; assay type: ADME, cell-based
[13] = Drug uptake in human ASPC1 cells in presence of alpha-Methyl-D,L-tryptophan; assay type: ADME, cell-based
[14] = Drug uptake in human MIA PaCa-2 cells assessed as Vmax measured at 10 mins; assay type: ADME, cell-based; details: mia paca-2, 10 min
[15] = Drug uptake in human MIA PaCa-2 cells assessed as Km; assay type: ADME, cell-based
[16] = Drug uptake in human ASPC1 cells assessed as Vmax measured at 10 mins; assay type: ADME, cell-based; details: aspc1, 10 min
[17] = Drug uptake in human ASPC1 cells assessed as Km; assay type: ADME, cell-based
[18] = Drug uptake in human HPDE cells; assay type: ADME, cell-based
[19] = Drug uptake in human ASPC1 cells; assay type: ADME, cell-based
[20] = Drug uptake in human MIA PaCa-2 cells; assay type: ADME, cell-based
[21] = Stability in rat liver homogenate assessed as half life; assay type: ADME, tissue-based
[22] = Stability in human ASPC1 cells homogenate assessed as half life; assay type: ADME, cell-based; details: ASPC1 cell homogenate
[23] = Stability in rat plasma assessed as half life; assay type: ADME, cell-free

SMILES | Activity [1] | Activity [2] | Activity [3] | Activity [4] | Activity [5] | Drug uptake [6] | Drug uptake [7] | Drug uptake [8] | Drug uptake [9] | Drug uptake [10] | Drug uptake [11] | Drug uptake [12] | Drug uptake [13] | Vmax [14] [nmol/mg] | Km [15] [µM] | Vmax [16] [nmol/mg] | Km [17] [µM] | Drug uptake [18] | Drug uptake [19] | Drug uptake [20] | further results
CC(C)[C@H](N)C(=O)O[C@@H]1[C@@]2(C(C)C)O[C@H]2[C@@H]2O[C@]23[C@]12O[C@H]2C[C@H]1C2=C(CC[C@@]13C)C(=O)OC2 | inactive | inactive | Active | Active | Non-Toxic | Active | Active | Not Active | Not Active | Not Active | Not Active | Not Active | Not Active | 4.132 | 112 | 4.391 | 130 | Not Active | Active | Active | half-life [21]: 6 h; half-life [22]: 8 h; half-life [23]: > 10 h
CC(C)[C@]12O[C@H]1[C@@H]1O[C@]13[C@]1(O[C@H]1C[C@H]1C4=C(CC[C@@]13C)C(=O)OC4)[C@@H]2OC(=O)[C@@H](N)CCCCN | inactive | inactive | Active | Active | Non-Toxic | Active | Active | Not Active | Not Active | Not Active | Not Active | Not Active | Not Active | 3.516 | 124 | 3.41 | 121 | Not Active | Active | Active | half-life [21]: 6 h; half-life [22]: 8 h; half-life [23]: > 10 h
CC(C)[C@]12O[C@H]1[C@@H]1O[C@]13[C@]1(O[C@H]1C[C@H]1C4=C(CC[C@@]13C)C(=O)OC4)[C@@H]2O [TRIPTOLIDE] | – | – | Active | Active | Toxic | – | – | – | – | – | – | – | – | – | – | – | – | – | – | – | –
CC(C)[C@]12O[C@H]1[C@@H]1O[C@]13[C@]1(O[C@H]1C[C@H]1C4=C(CC[C@@]13C)C(=O)OC4)[C@@H]2OC(=O)[C@@H](N)Cc1c[nH]c2ccccc12 | inactive | inactive | Active | Active | Non-Toxic | Active | Active | Not Active | Not Active | Not Active | Not Active | Not Active | Not Active | 5.072 | 96 | 5.874 | 105 | Not Active | Active | Active | half-life [21]: 6 h; half-life [22]: 8 h; half-life [23]: > 10 h
